For eleven compounds, MIC results are on record in patent publication US7547679B2, “Ether linked macrolides useful for the treatment of microbial infections” (GlaxoSmithKline istrazivacki center Zagreb d.o.o, priority 2005, dated 2009).

Counter-ions that a name gives are not always drawn.

Common to all, as to format: cell-based
Assay [1] has as its system erythromycin resistant strain of Streptococcus pneumoniae. Nature of the assay: MIC, microtiter broth serial dilution test, erythromycin resistant S. pneumoniae. To be noted: read-out: MIC against erythromycin resistant strain of Streptococcus pneumoniae.
In the next assay the test system is sensitive S. pneumoniae. Nature of the assay: MIC, microtiter broth serial dilution test, sensitive S. pneumoniae. To be noted: Streptococcus pneumoniae; sensitive strain; read-out: MIC against sensitive S. pneumoniae.
Another assay deals with E. faecalis. The assay can be described thus: MIC, microtiter broth serial dilution test, E. faecalis. The conditions noted are these: Enterococcus faecalis; read-out: MIC against E. faecalis.
In assay [2] the test system is erythromycin resistant strain of Streptococcus pyogenes. Nature of the assay: MIC, microtiter broth serial dilution test, erythromycin resistant S. pyogenes. The conditions noted are these: read-out: MIC against erythromycin resistant strain of Streptococcus pyogenes.
For a further assay, the system named is sensitive S. pyogenes. The assay can be described thus: MIC, microtiter broth serial dilution test, sensitive S. pyogenes. The conditions noted are these: Streptococcus pyogenes; sensitive strain; read-out: MIC against sensitive S. pyogenes.
The next assay concerns M. catarrhalis. The assay can be described thus: MIC, microtiter broth serial dilution test, M. catarrhalis. The conditions noted are these: Moraxella catarrhalis; read-out: MIC against M. catarrhalis.

Regarding `CC[C@H]1OC(=O)[C@H](C)[C@@H](O[C@H]2C[C@@](C)(OC)[C@@H](OCCNCCOCCNc3cc4c(cc3F)c(=O)c(C(=O)O)cn4C3CC3)[C@H](C)O2)[C@H](C)[C@@H](O[C@@H]2O[C@H](C)C[C@H](N(C)C)[C@H]2O)[C@](C)(O)C[C@@H](C)CN(C)[C@H](C)[C@H]2OC(=O)O[C@@]21C` [Example 16, 4″-O-(2-{2-[2-(3-Carboxy-6-fluoro-1-cyclopropyl-4-oxo-1,4-dihydro-quinolin-7-ylamino)-ethoxy]-ethylamino}-ethyl)-azithromycin 11,12-cyclic carbonate], the MIC was not above 0.25 µg/mL in assay [1]; not above 0.125 µg/mL in the assay with sensitive S. pneumoniae; not above 1 µg/mL in the assay with E. faecalis; not above 0.25 µg/mL in assay [2]; not above 0.125 µg/mL with sensitive S. pyogenes.
As for `CC[C@H]1OC(=O)[C@H](C)[C@@H](OC2C[C@@](C)(OC)[C@@H](OCCNCCOCCNc3cc4c(=O)c(C(=O)O)cn(C5CC5)c4cc3Cl)[C@H](C)O2)[C@H](C)[C@@H](O[C@@H]2O[C@H](C)C[C@H](N(C)C)[C@H]2O)[C@](C)(O)C[C@@H](C)CN(C)[C@H](C)[C@@H]2OC(=O)O[C@]12C` (stereo partly shown) [Example 3, 4″-O-(2-{2-[2-(3-Carboxy-7-chloro-1-cyclopropyl-4-oxo-1,4-dihydro-quinolin-6-ylamino)-ethoxy]-ethylamino}-ethyl)-azithromycin 11,12-cyclic carbonate], the MIC was not above 0.25 µg/mL in assay [1]; not above 0.125 µg/mL with sensitive S. pneumoniae; not above 1 µg/mL in the assay on E. faecalis; not above 0.25 µg/mL in assay [2]; not above 0.125 µg/mL in the assay on sensitive S. pyogenes.
Regarding `CC[C@H]1OC(=O)[C@H](C)[C@@H](O[C@H]2C[C@@](C)(OC)[C@@H](OCCCOCCCOCCCc3ccc4c(c3)c(=O)c(C(=O)O)cn4C3CC3)[C@H](C)O2)[C@H](C)[C@@H](O[C@@H]2O[C@H](C)C[C@H](N(C)C)[C@H]2O)[C@](C)(O)C[C@@H](C)CN(C)[C@H](C)[C@@H](O)[C@]1(C)O` [Example 13, 4″-O-(3-{3-[3-(3-Carboxy-1-cyclopropyl-4-oxo-1,4-dihydro-quinolin-6-yl)-propoxy]-propoxy}-propyl)-azithromycin], the MIC in assay [1] was not above 0.25 µg/mL; in the assay on sensitive S. pneumoniae, not above 0.125 µg/mL; with E. faecalis, not above 1 µg/mL; in assay [2], not above 0.25 µg/mL; in the assay on sensitive S. pyogenes, not above 0.125 µg/mL; in the assay with M. catarrhalis it was not above 1 µg/mL.
Regarding `CC[C@H]1OC(=O)[C@H](C)[C@@H](O[C@H]2C[C@@](C)(OC)[C@@H](OCCCOCCOCCCc3ccc4c(c3)c(=O)c(C(=O)O)cn4CC)[C@H](C)O2)[C@H](C)[C@@H](O[C@@H]2O[C@H](C)C[C@H](N(C)C)[C@H]2O)[C@](C)(O)C[C@@H](C)CN(C)[C@H](C)[C@@H](OC)[C@]1(C)O` [Example 8, 4″-O-(3-{2-[3-(3-Carboxy-1-ethyl-4-oxo-1,4-dihydro-quinolin-6-yl)-propoxy]-ethoxy}-propyl)-11-O-methyl azithromycin], the MIC is not above 0.25 µg/mL in assay [1], not above 0.25 µg/mL in assay [2] and not above 1 µg/mL with M. catarrhalis.
Regarding `CC[C@H]1OC(=O)[C@H](C)[C@@H](O[C@H]2C[C@@](C)(OC)[C@@H](OCCN(C)CCOCCOCCc3ccc4c(c3)c(=O)c(C(=O)O)cn4CC)[C@H](C)O2)[C@H](C)[C@@H](O[C@@H]2O[C@H](C)C[C@H](N(C)C)[C@H]2O)[C@](C)(OC)C[C@@H](C)C(=O)[C@H](C)[C@@H](O)[C@]1(C)O` [Example 19, 4″-O-{2-({2-[(2-{[2-(3-Carboxy-1-ethyl-4-oxo-1,4-dihydro-6-quinolinyl)ethyl]oxy}ethyl)oxy]ethyl}methylamino)ethyl}-6-O-methyl-erythromycin A], the MIC in assay [1] is not above 0.25 µg/mL; in the assay on sensitive S. pneumoniae, not above 0.125 µg/mL; in the assay with E. faecalis it was not above 1 µg/mL; in assay [2], not above 0.25 µg/mL; with sensitive S. pyogenes it was not above 0.125 µg/mL; in the assay with M. catarrhalis, not above 1 µg/mL.
In the case of `CC[C@H]1OC(=O)[C@H](C)[C@@H](O[C@H]2C[C@@](C)(OC)[C@@H](OCCCOCCOCCCc3ccc4c(c3)c(=O)c(C(=O)O)cn4N(C)C)[C@H](C)O2)[C@H](C)[C@@H](O[C@@H]2O[C@H](C)C[C@H](N(C)C)[C@H]2O)[C@](C)(O)C[C@@H](C)CN(C)[C@H](C)[C@@H](O)[C@]1(C)O` [Example 15, 4″-O-(3-{2-[3-(3-Carboxy-1-dimethylamino-4-oxo-1,4-dihydro-quinolin-6-yl)-propoxy]-ethoxy}-propyl)-azithromycin], the MIC in assay [1] is not above 0.25 µg/mL; with sensitive S. pneumoniae, not above 0.125 µg/mL; in the assay on E. faecalis, not above 1 µg/mL; in assay [2] it was not above 0.25 µg/mL; with sensitive S. pyogenes it was not above 0.125 µg/mL; in the assay with M. catarrhalis, not above 1 µg/mL.
As for `CC[C@H]1OC(=O)[C@H](C)[C@@H](OC2C[C@@](C)(OC)[C@@H](OCCNCCOCCOCCNc3cc4c(=O)c(C(=O)O)cn(C5CC5)c4cc3Cl)[C@H](C)O2)[C@H](C)[C@@H](O[C@@H]2O[C@H](C)C[C@H](N(C)C)[C@H]2O)[C@](C)(O)C[C@@H](C)CN(C)[C@H](C)[C@@H]2OC(=O)O[C@]12C` (stereo partly shown) [Example 2, 4″-O-[2-(2-{2-[2-(3-Carboxy-7-chloro-1-cyclopropyl-4-oxo-1,4-dihydro-quinolin-6-yl-amino)-ethoxy]-ethoxy}-ethylamino)-ethyl]-azithromycin 11,12-cyclic carbonate], the MIC was not above 0.25 µg/mL in assay [1]; not above 0.125 µg/mL in the assay with sensitive S. pneumoniae; not above 1 µg/mL in the assay with E. faecalis; not above 0.25 µg/mL in assay [2]; not above 0.125 µg/mL in the assay on sensitive S. pyogenes.
Turning to `CC[C@H]1OC(=O)[C@H](C)[C@@H](O[C@H]2C[C@@](C)(OC)[C@@H](OCCCNCCOCCCc3ccc4c(c3)c(=O)c(C(=O)O)cn4CC)[C@H](C)O2)[C@H](C)[C@@H](O[C@@H]2O[C@H](C)C[C@H](N(C)C)[C@H]2O)[C@](C)(O)C[C@@H](C)CN(C)[C@H](C)[C@@H](O)[C@]1(C)O` [Example 5, 4″-O-(3-{2-[3-(3-Carboxy-1-ethyl-4-oxo-1,4-dihydro-quinolin-6-yl)-propoxy]-ethylamnio}-propyl)-azithromycin], the MIC in assay [1] is not above 0.25 µg/mL; in the assay with sensitive S. pneumoniae it was not above 0.125 µg/mL; with E. faecalis, not above 1 µg/mL; in assay [2], not above 0.25 µg/mL; in the assay on sensitive S. pyogenes, not above 0.125 µg/mL; in the assay on M. catarrhalis, not above 1 µg/mL.
Take `CC[C@H]1OC(=O)[C@H](C)[C@@H](O[C@H]2C[C@@](C)(OC)[C@@H](OCCCNC(=O)CCOCCOCCNc3cc4c(=O)c(C(=O)O)cn(C5CC5)c4cc3Cl)[C@H](C)O2)[C@H](C)[C@@H](O[C@@H]2O[C@H](C)C[C@H](N(C)C)[C@H]2O)[C@](C)(O)C[C@@H](C)CN(C)[C@H](C)[C@@H](O)[C@]1(C)O` [Example 11, 4″-O-[3-(3-{2-[2-(3-carboxy-7-chloro-1-cyclopropyl-4-oxo-1,4-dihydro-quinolin-6-ylamino)-ethoxy]-ethoxy}-propionylamino)-propyl]-azithromycin]: the MIC was not above 0.25 µg/mL in assay [1]; not above 0.125 µg/mL in the assay on sensitive S. pneumoniae; not above 1 µg/mL in the assay on E. faecalis; not above 0.25 µg/mL in assay [2]; not above 0.125 µg/mL in the assay with sensitive S. pyogenes.
For `CC[C@H]1OC(=O)[C@H](C)[C@@H](O[C@H]2C[C@@](C)(OC)[C@@H](OCCCNC(=O)CCOCCCc3ccc4c(c3)c(=O)c(C(=O)O)cn4N(C)C)[C@H](C)O2)[C@H](C)[C@@H](O[C@@H]2O[C@H](C)C[C@H](N(C)C)[C@H]2O)[C@](C)(OC)C[C@H](C)C(=O)[C@H](C)[C@@H](O)[C@]1(C)O` [Example 9, 4″-O-(3-{3-[3-(3-Carboxy-1-dimethylamino-4-oxo-1,4-dihydro-quinolin-6-yl)-propoxy]-propionylamino}-propyl)-6-O-methyl-erythromycin A], the MIC was not above 0.125 µg/mL with sensitive S. pneumoniae; not above 1 µg/mL in the assay on E. faecalis; not above 0.25 µg/mL in assay [2]; not above 0.125 µg/mL with sensitive S. pyogenes; not above 1 µg/mL with M. catarrhalis.
For `CC[C@H]1OC(=O)[C@H](C)[C@@H](O[C@H]2C[C@@](C)(OC)[C@@H](OCCNCCOCCOCCc3ccc4c(c3)c(=O)c(C(=O)O)cn4CC)[C@H](C)O2)[C@H](C)[C@@H](O[C@@H]2O[C@H](C)C[C@H](N(C)C)[C@H]2O)[C@](C)(OC)C[C@@H](C)C(=O)[C@H](C)[C@@H](O)[C@]1(C)O` [Example 18, 4″-O-{2-({2-[(2-{[2-(3-Carboxy-1-ethyl-4-oxo-1,4-dihydro-6-quinolinyl)ethyl]oxy}ethyl)oxy]ethyl}amino)ethyl}-6-O-methyl-erythromycin A formate], the MIC in assay [1] is not above 0.25 µg/mL; with sensitive S. pneumoniae, not above 0.125 µg/mL; in the assay on E. faecalis it was not above 1 µg/mL; in assay [2], not above 0.25 µg/mL; in the assay on sensitive S. pyogenes it was not above 0.125 µg/mL; in the assay on M. catarrhalis, not above 1 µg/mL.
